Measurements from patent US20230372498A1, “PLK1 SELECTIVE DEGRADATION INDUCING COMPOUND” (UPPTHERA, priority 2020, published 2023).

Target: T1, PLK1 (Homo sapiens, UniProt P53350)
T1 construct: endogenous in cells; host or cells: HeLa
Assay: PLK1 protein degradation in HeLa cells, Western blotting (PLK1/GAPDH ratio)
Assay type: cell-based
Settings: for DC50 / Dmax: 6 hours compound incubation; for DC50: measured only if the grade of Dmax is A or B; for Dmax: thymidine block and release, 10 points three-fold from 3 μM, PLK1 to GAPDH ratio, read-out: Dmax
In short: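 Thymidine-synchronised HeLa cells (2 mM, 24 h) released 4 h into complete medium, then treated 6 h with compound in 10-point 3-fold dilutions from 3 μM. RIPA lysates (15 μg protein) run on SDS-PAGE; PLK1 Western blot normalised to GAPDH.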

T1 sequence (P53350 whole entry): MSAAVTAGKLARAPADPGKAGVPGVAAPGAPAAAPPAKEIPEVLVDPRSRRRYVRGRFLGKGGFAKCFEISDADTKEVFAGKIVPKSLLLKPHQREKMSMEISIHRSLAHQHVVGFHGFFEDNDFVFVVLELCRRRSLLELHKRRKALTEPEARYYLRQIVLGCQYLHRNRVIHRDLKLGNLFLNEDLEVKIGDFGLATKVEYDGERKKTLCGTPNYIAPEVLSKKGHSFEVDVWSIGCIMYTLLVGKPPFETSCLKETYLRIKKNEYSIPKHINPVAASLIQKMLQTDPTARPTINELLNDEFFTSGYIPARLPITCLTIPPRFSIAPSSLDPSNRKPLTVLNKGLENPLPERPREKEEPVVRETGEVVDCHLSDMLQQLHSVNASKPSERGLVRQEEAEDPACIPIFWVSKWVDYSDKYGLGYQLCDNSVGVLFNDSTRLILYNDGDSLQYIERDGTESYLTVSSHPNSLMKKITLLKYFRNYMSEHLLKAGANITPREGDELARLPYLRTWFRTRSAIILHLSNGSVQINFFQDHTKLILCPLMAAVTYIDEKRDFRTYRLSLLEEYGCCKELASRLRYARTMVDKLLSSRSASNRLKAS

## COc1cc(C(=O)NCCOCCOCCOCCNc2cccc3c2C(=O)N(C2CCC(=O)NC2=O)C3=O)c(F)cc1Nc1ncc2c(n1)N(C1CCCC1)CC(F)(F)C(=O)N2C (centres unmarked) [Compound 153, 4-((9-cyclopentyl-7,7-difluoro-5-methyl-6-oxo-6,7,8,9-tetrahydro-5H-pyrimido[4,5-b][1,4]diazepin-2-yl)amino)-N-(2-(2-(2-(2-((2-(2,6-dioxopiperidin-3-yl)-1,3-dioxoisoindolin-4-yl)amino)ethoxy)ethoxy)ethoxy)ethyl)-2-fluoro-5-methoxybenzamide]
  DC50: ≤ 50 nM
  Dmax: ≥ 80%

## COc1cc(C(=O)NC2CCN(CCOCCOCCOCCOCCCc3cccc4c3C(=O)N(C3CCC(=O)NC3=O)C4=O)CC2)c(F)cc1Nc1ncc2c(n1)N(C1CCCC1)CC(F)(F)C(=O)N2C (centres unmarked) [Compound 53, 4-((9-cyclopentyl-7,7-difluoro-5-methyl-6-oxo-6,7,8,9-tetrahydro-5H-pyrimido[4,5-b][1,4]diazepin-2-yl)amino)-N-(1-(15-(2-(2,6-dioxopiperidin-3-yl)-1,3-dioxoisoindolin-4-yl)-3,6,9,12-tetraoxapentadecyl)piperidin-4-yl)-2-fluoro-5-methoxybenzamide]
  DC50: ≤ 50 nM
  Dmax: ≥ 80%

## COc1cc(C(=O)NC2CCN(CCOCCOCCOCCOCC(=O)Nc3cccc4c3C(=O)N(C3CCC(=O)NC3=O)C4=O)CC2)c(F)cc1Nc1ncc2c(n1)N(C1CCCC1)CC(F)(F)C(=O)N2C (centres unmarked) [Compound 27, 14-(4-(4-((9-cyclopentyl-7,7-difluoro-5-methyl-6-oxo-6,7,8,9-tetrahydro-5H-pyrimido[4,5-b][1,4]diazepin-2-yl)amino)-2-fluoro-5-methoxybenzamido)piperidin-1-yl)-N-(2-(2,6-dioxopiperidin-3-yl)-1,3-dioxoisoindolin-4-yl)-3,6,9,12-tetraoxatetradecanamide]
  DC50: ≤ 500 nM
  Dmax: 60 to 80%

## COc1cc(C(=O)NC2CCCN(CCOCCOCCNc3cccc4c3C(=O)N(C3CCC(=O)NC3=O)C4=O)C2)c(F)cc1Nc1ncc2c(n1)N(C1CCCC1)CC(F)(F)C(=O)N2C (centres unmarked) [Example 104, 4-((9-cyclopentyl-7,7-difluoro-5-methyl-6-oxo-6,7,8,9-tetrahydro-5H-pyrimido[4,5-b][1,4]diazepin-2-yl)amino)-N-(1-(2-(2-(2-((2-(2,6-dioxopiperidin-3-yl)-1,3-dioxoisoindolin-4-yl)amino)ethoxy)ethoxy)ethyl)piperidin-3-yl)-2-fluoro-5-methoxybenzamide]
  DC50: ≤ 50 nM
  Dmax: ≥ 80%

## COc1cc(C(=O)NC2CCN(CCOCCOCCOCCNc3cccc4c3C(=O)N(C3CCC(=O)NC3=O)C4=O)CC2)c(F)cc1Nc1ncc2c(n1)N(C1CCCC1)CC(F)(F)C(=O)N2C (centres unmarked) [Compound 3, 4-((9-cyclopentyl-7,7-difluoro-5-methyl-6-oxo-6,7,8,9-tetrahydro-5H-pyrimido[4,5-b][1,4]diazepin-2-yl)amino)-N-(1-(2-(2-(2-(2-((2-(2,6-dioxopiperidin-3-yl)-1,3-dioxoisoindolin-4-yl)amino)ethoxy)ethoxy)ethoxy)ethyl)piperidin-4-yl)-2-fluoro-5-methoxybenzamide]
  DC50: ≤ 50 nM
  Dmax: ≥ 80%

## COc1cc(C(=O)NCCOCCOCCNc2cccc3c2C(=O)N(C2CCC(=O)NC2=O)C3=O)ccc1Nc1ncc2c(n1)N(C1CCCC1)CC(F)(F)C(=O)N2C (centres unmarked) [Example 168, 4-((9-cyclopentyl-7,7-difluoro-5-methyl-6-oxo-6,7,8,9-tetrahydro-5H-pyrimido[4,5-b][1,4]diazepin-2-yl)amino)-N-(2-(2-(2-((2-(2,6-dioxopiperidin-3-yl)-1,3-dioxoisoindolin-4-yl)amino)ethoxy)ethoxy)ethyl)-3-methoxybenzamide]
  Dmax: ≥ 80%

## CN1C(=O)C(F)(F)CN(C2CCCC2)c2nc(Nc3cc(F)c(C(=O)NC4CCN(CCOCCOCCNc5cccc6c5C(=O)N(C5CCC(=O)NC5=O)C6=O)CC4)cc3OCCO)ncc21 (centres unmarked) [Example 97, 4-((9-cyclopentyl-7,7-difluoro-5-methyl-6-oxo-6,7,8,9-tetrahydro-5H-pyrimido[4,5-b][1,4]diazepin-2-yl)amino)-N-(1-(2-(2-(2-((2-(2,6-dioxopiperidin-3-yl)-1,3-dioxoisoindolin-4-yl)amino)ethoxy)ethoxy)ethyl)piperidin-4-yl)-2-fluoro-5-(2-hydroxyethoxy)benzamide]
  Dmax: < 60%

## COc1cc(C(=O)NC2CCN(CCOCCNc3cccc4c3C(=O)N(C3CCC(=O)NC3=O)C4=O)C2)c(F)cc1Nc1ncc2c(n1)N(C1CCCC1)CC(F)(F)C(=O)N2C (centres unmarked) [Example 106, 4-((9-cyclopentyl-7,7-difluoro-5-methyl-6-oxo-6,7,8,9-tetrahydro-5H-pyrimido[4,5-b][1,4]diazepin-2-yl)amino)-N-(1-(2-(2-((2-(2,6-dioxopiperidin-3-yl)-1,3-dioxoisoindolin-4-yl)amino)ethoxy)ethyl)pyrrolidin-3-yl)-2-fluoro-5-methoxybenzamide]
  DC50: ≤ 500 nM
  Dmax: 60 to 80%

## COc1cc(C(=O)NC2CCN(Cc3cn(CCOCCOCCOCCNc4cccc5c4C(=O)N(C4CCC(=O)NC4=O)C5=O)nn3)CC2)c(F)cc1Nc1ncc2c(n1)N(C1CCCC1)CC(F)(F)C(=O)N2C (centres unmarked) [Compound 45, 4-((9-cyclopentyl-7,7-difluoro-5-methyl-6-oxo-6,7,8,9-tetrahydro-5H-pyrimido[4,5-b][1,4]diazepin-2-yl)amino)-N-(1-((1-(2-(2-(2-(2-((2-(2,6-dioxopiperidin-3-yl)-1,3-dioxoisoindolin-4-yl)amino)ethoxy)ethoxy)ethoxy)ethyl)-1H-1,2,3-triazol-4-yl)methyl)piperidin-4-yl)-2-fluoro-5-methoxybenzamide]
  DC50: ≤ 50 nM
  Dmax: ≥ 80%

## COc1cc(C(=O)NC2CCN(CCOCCNc3cccc4c3C(=O)N(C3CCC(=O)NC3=O)C4=O)CC2)c(F)cc1Nc1ncc2c(n1)N(C1CCCC1)CC(F)(F)C(=O)N2C (centres unmarked) [Compound 1, 4-((9-cyclopentyl-7,7-difluoro-5-methyl-6-oxo-6,7,8,9-tetrahydro-5H-pyrimido[4,5-b][1,4]diazepin-2-yl)amino)-N-(1-(2-(2-((2-(2,6-dioxopiperidin-3-yl)-1,3-dioxoisoindolin-4-yl)amino)ethoxy)ethyl)piperidin-4-yl)-2-fluoro-5-methoxybenzamide]
  DC50: ≤ 50 nM
  Dmax: ≥ 80%
In comparison with Comparative Compounds
  PLK1 protein degradability (western blot, FIG. 1 and 2): excellent PLK1 protein degradability

## COc1cc(C(=O)NCCCCCCCCNc2cccc3c2C(=O)N(C2CCC(=O)NC2=O)C3=O)c(F)cc1Nc1ncc2c(n1)N(C1CCCC1)CC(F)(F)C(=O)N2C (centres unmarked) [Compound 154, 4-((9-cyclopentyl-7,7-difluoro-5-methyl-6-oxo-6,7,8,9-tetrahydro-5H-pyrimido[4,5-b][1,4]diazepin-2-yl)amino)-N-(8-((2-(2,6-dioxopiperidin-3-yl)-1,3-dioxoisoindolin-4-yl)amino)octyl)-2-fluoro-5-methoxybenzamide]
  Dmax: < 60%

## COc1cc(C(=O)NC2CN(CCOCCOCCNc3cccc4c3C(=O)N(C3CCC(=O)NC3=O)C4=O)C2)c(F)cc1Nc1ncc2c(n1)N(C1CCCC1)CC(F)(F)C(=O)N2C (centres unmarked) [Compound 123, 4-((9-cyclopentyl-7,7-difluoro-5-methyl-6-oxo-6,7,8,9-tetrahydro-5H-pyrimido[4,5-b][1,4]diazepin-2-yl)amino)-N-(1-(2-(2-(2-((2-(2,6-dioxopiperidin-3-yl)-1,3-dioxoisoindolin-4-yl)amino)ethoxy)ethoxy)ethyl)azetidin-3-yl)-2-fluoro-5-methoxybenzamide]
  DC50: ≤ 50 nM
  Dmax: ≥ 80%

## CN1C(=O)C(F)(F)CN(C2CCCC2)c2nc(Nc3cc(F)c(C(=O)NC4CCN(CCOCCOCCNc5cccc6c5C(=O)N(C5CCC(=O)NC5=O)C6=O)CC4)cc3OC3CC3)ncc21 (centres unmarked) [Example 92, 4-((9-cyclopentyl-7,7-difluoro-5-methyl-6-oxo-6,7,8,9-tetrahydro-5H-pyrimido[4,5-b][1,4]diazepin-2-yl)amino)-5-cyclopropoxy-N-(1-(2-(2-(2-((2-(2,6-dioxopiperidin-3-yl)-1,3-dioxoisoindolin-4-yl)amino)ethoxy)ethoxy)ethyl)piperidin-4-yl)-2-fluorobenzamide]
  DC50: ≤ 50 nM
  Dmax: ≥ 80%

## COc1cc(C(=O)NC2CCN(CCOCCN(C)CCNc3cccc4c3C(=O)N(C3CCC(=O)NC3=O)C4=O)CC2)c(F)cc1Nc1ncc2c(n1)N(C1CCCC1)CC(F)(F)C(=O)N2C (centres unmarked) [Compound 49, 4-((9-cyclopentyl-7,7-difluoro-5-methyl-6-oxo-6,7,8,9-tetrahydro-5H-pyrimido[4,5-b][1,4]diazepin-2-yl)amino)-N-(1-(2-(2-((2-((2-(2,6-dioxopiperidin-3-yl)-1,3-dioxoisoindolin-4-yl)amino)ethyl)(methyl)amino)ethoxy)ethyl)piperidin-4-yl)-2-fluoro-5-methoxybenzamide]
  DC50: ≤ 500 nM
  Dmax: 60 to 80%

## COc1cc(C(=O)NCCOCCOCCNc2ccc3c(c2)C(=O)N(C2CCC(=O)NC2=O)C3=O)c(F)cc1Nc1ncc2c(n1)N(C1CCCC1)CC(F)(F)C(=O)N2C (centres unmarked) [Compound 163, 4-((9-cyclopentyl-7,7-difluoro-5-methyl-6-oxo-6,7,8,9-tetrahydro-5H-pyrimido[4,5-b][1,4]diazepin-2-yl)amino)-N-(2-(2-(2-((2-(2,6-dioxopiperidin-3-yl)-1,3-dioxoisoindolin-5-yl)amino)ethoxy)ethoxy)ethyl)-2-fluoro-5-methoxybenzamide]
  DC50: ≤ 500 nM
  Dmax: 60 to 80%

## COc1cc(C(=O)NC2CCN(CCOCCOCC(=O)Nc3cccc4c3C(=O)N(C3CCC(=O)NC3=O)C4=O)CC2)c(F)cc1Nc1ncc2c(n1)N(C1CCCC1)CC(F)(F)C(=O)N2C (centres unmarked) [Compound 26, 4-((9-cyclopentyl-7,7-difluoro-5-methyl-6-oxo-6,7,8,9-tetrahydro-5H-pyrimido[4,5-b][1,4]diazepin-2-yl)amino)-N-(1-(2-(2-(2-((2-(2,6-dioxopiperidin-3-yl)-1,3-dioxoisoindolin-4-yl)amino)-2-oxoethoxy)ethoxy)ethyl)piperidin-4-yl)-2-fluoro-5-methoxybenzamide]
  Dmax: < 60%
